Bounds are passed on as bounds.

Experimental findings from article PMC10282079, “Design, synthesis, in vitro anti-α-glucosidase evaluations, and computational studies of new phthalimide-phenoxy-1,2,3-triazole-N-phenyl (or benzyl) acetamides as potential anti-diabetic agents” (Scientific Reports, 2023) are described below.

In data set [1] the target is T1, yeast α-glucosidase (Saccharomyces cerevisiae, UniProt P53341).
T1 construct: purchased Sigma-Aldrich
As to the kind of experiment: biochemical. In kind it is biochemical. The note with it: for IC50: yeast α-glucosidase, mean ± SD of three independent experiments; for α-glucosidase inhibitory activity in words: SAR discussion of Table 1. How it is done:
The in vitro enzymatic inhibitory activity of phthalimide-phenoxy-1,2,3-triazole-N-phenyl (or benzyl) acetamide 11a–n was evaluated against yeast α-glucosidase.
The change in absorbance was measured at 405 nm using by a standard spectrophotometer (Gen5, Power wave xs2, BioTek, America).

Data set [2] addresses T2, α-glucosidase (Saccharomyces cerevisiae, UniProt P53341).
T2 construct: purchased Sigma-Aldrich
As to the kind of experiment: Kinetic study of α-glucosidase inhibition (Lineweaver–Burk). In kind it is biochemical. The method, then:
For this purpose, the reaction rates in the presence of different concentrations of compound 11j were measured in various concentrations of substrate (p-nitrophenyl-a-D-glucopyranoside). Graphs of different concentrations of inhibitor were drawn by the Lineweaver–Burk plot (Fig. 2a). […] The Ki value was calculated directly by plotting the slope of each line in the Lineweaver–Burk plots into the different concentrations of compound 11j (Fig. 2b).
The 20 µL of α-glucosidase solution (1 U/mL) was incubated with different concentrations of compound 11j (0, 12, 23 and 46 µM) for 15 min at 30 °C. The reaction was then started by adding different concentrations of substrate (1–10 mM) and change in absorbance was measured for 20 min at 405 nm using by spectrophotometer (Gen5, Power wave xs2, BioTek, America).

T1 sequence (P53341 whole entry): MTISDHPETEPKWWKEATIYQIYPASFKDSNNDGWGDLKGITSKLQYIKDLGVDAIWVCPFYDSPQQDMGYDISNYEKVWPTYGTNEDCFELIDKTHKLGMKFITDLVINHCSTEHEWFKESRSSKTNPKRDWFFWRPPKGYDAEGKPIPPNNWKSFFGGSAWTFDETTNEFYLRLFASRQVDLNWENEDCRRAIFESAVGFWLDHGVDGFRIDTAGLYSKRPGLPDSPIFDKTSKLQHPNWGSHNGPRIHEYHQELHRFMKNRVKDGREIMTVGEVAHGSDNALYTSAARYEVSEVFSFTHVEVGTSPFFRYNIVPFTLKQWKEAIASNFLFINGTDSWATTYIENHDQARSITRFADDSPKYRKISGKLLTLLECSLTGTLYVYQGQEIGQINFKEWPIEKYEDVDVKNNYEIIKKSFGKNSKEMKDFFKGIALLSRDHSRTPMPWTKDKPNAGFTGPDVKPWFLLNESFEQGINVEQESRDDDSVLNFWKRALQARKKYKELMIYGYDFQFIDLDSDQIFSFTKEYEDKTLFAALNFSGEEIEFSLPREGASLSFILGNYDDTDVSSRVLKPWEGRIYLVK
T2 sequence (P53341 whole entry): as above

What is called melting point is the temperature of the solid-liquid transition. The term IC50 denotes the concentration that gives 50% inhibition. A high value points to weaker potency. On to `O=C(Cn1cc(COc2ccc(N3C(=O)c4ccccc4C3=O)cc2)nn1)Nc1ccccc1` [Compound 11a, 2-(4-((4-(1,3-dioxoisoindolin-2-yl)phenoxy)methyl)-1H-1,2,3-triazol-1-yl)-N-phenylacetamide], for which the melting point fell in the range of 218 to 220 °C. The IC50 in data set [1] was 203.8 ± 0.32 µM.

As for `Cc1cccc(NC(=O)Cn2cc(COc3ccc(N4C(=O)c5ccccc5C4=O)cc3)nn2)c1C` [Compound 11b, N-(2,3-dimethylphenyl)-2-(4-((4-(1,3-dioxoisoindolin-2-yl)phenoxy)methyl)-1H-1,2,3-triazol-1-yl)acetamide], the melting point is 206 to 208 °C. Moreover, the “Fold less potent than compound 11a” value in data set [1] (ratio of IC50 values) is reported as 1.8 fold. Besides, in data set [1], the IC50 was determined as 366.1 ± 0.86 µM.

Regarding `Cc1cccc(C)c1NC(=O)Cn1cc(COc2ccc(N3C(=O)c4ccccc4C3=O)cc2)nn1` [Compound 11c, N-(2,6-dimethylphenyl)-2-(4-((4-(1,3-dioxoisoindolin-2-yl)phenoxy)methyl)-1H-1,2,3-triazol-1-yl)acetamide], the melting point fell in the range of 209 to 211 °C. Also, in data set [1], the “α-glucosidase inhibitory activity in words” value is “inactive”.

In turn, `CCc1ccc(NC(=O)Cn2cc(COc3ccc(N4C(=O)c5ccccc5C4=O)cc3)nn2)cc1` [Compound 11d, 2-(4-((4-(1,3-dioxoisoindolin-2-yl)phenoxy)methyl)-1H-1,2,3-triazol-1-yl)-N-(4-ethylphenyl)acetamide] yielded a melting point of 202 to 204 °C. Besides, in data set [1], the “α-glucosidase inhibitory activity in words” value is on record as “significant decrease in the inhibitory activity” and half-maximal inhibition (IC50) was put at 491.68 ± 0.11 µM.

On to `O=C(Cn1cc(COc2ccc(N3C(=O)c4ccccc4C3=O)cc2)nn1)Nc1cccc(F)c1` [Compound 11e, 2-(4-((4-(1,3-dioxoisoindolin-2-yl)phenoxy)methyl)-1H-1,2,3-triazol-1-yl)-N-(3-fluorophenyl)acetamide], for which the melting point is 204 to 206 °C. Further, the IC50 in data set [1] was found to be 188.3 ± 0.27 µM.

As for `O=C(Cn1cc(COc2ccc(N3C(=O)c4ccccc4C3=O)cc2)nn1)Nc1cccc(Cl)c1` [Compound 11f, N-(3-chlorophenyl)-2-(4-((4-(1,3-dioxoisoindolin-2-yl)phenoxy)methyl)-1H-1,2,3-triazol-1-yl)acetamide], the melting point is 210 to 212 °C. In data set [1], this molecule yielded an IC50 of 112.16 ± 0.03 µM.

The molecule `O=C(Cn1cc(COc2ccc(N3C(=O)c4ccccc4C3=O)cc2)nn1)Nc1cccc(Cl)c1Cl` [Compound 11g, N-(2,3-dichlorophenyl)-2-(4-((4-(1,3-dioxoisoindolin-2-yl)phenoxy)methyl)-1H-1,2,3-triazol-1-yl)acetamide] registered a melting point of 203 to 205 °C. In data set [1], the “α-glucosidase inhibitory activity in words” value is “moderate anti-α-glucisidase activity” and the midpoint of inhibition, the IC50, lay at 239.1 ± 0.41 µM.

Take `O=C(Cn1cc(COc2ccc(N3C(=O)c4ccccc4C3=O)cc2)nn1)Nc1ccc(Cl)cc1Cl` [Compound 11h, N-(2,4-dichlorophenyl)-2-(4-((4-(1,3-dioxoisoindolin-2-yl)phenoxy)methyl)-1H-1,2,3-triazol-1-yl)acetamide]: the melting point was in the range of 232 to 234 °C. Inhibition in data set [1] was half-maximal at 284 ± 0.41 µM (IC50).

The molecule `O=C(Cn1cc(COc2ccc(N3C(=O)c4ccccc4C3=O)cc2)nn1)Nc1c(Cl)cccc1Cl` [Compound 11i, N-(2,6-dichlorophenyl)-2-(4-((4-(1,3-dioxoisoindolin-2-yl)phenoxy)methyl)-1H-1,2,3-triazol-1-yl)acetamide] returned a melting point of 202 to 204 °C. This molecule came in with an IC50 in data set [1] of 46.2 ± 0.89 µM.

What is called Ki is a dissociation constant, usually derived from enzyme kinetics or from competition with a known ligand. Low readings indicate higher affinity, high ones lower affinity. `O=C(Cn1cc(COc2ccc(N3C(=O)c4ccccc4C3=O)cc2)nn1)Nc1ccc(Br)cc1` [Compound 11j, N-(4-bromophenyl)-2-(4-((4-(1,3-dioxoisoindolin-2-yl)phenoxy)methyl)-1H-1,2,3-triazol-1-yl)acetamide] registered a melting point of 237 to 239 °C. The Inhibition mode entry in data set [2] (Lineweaver–Burk plot) is listed as “competitive inhibitor”. Further, in data set [2] (secondary re-plot of Lineweaver–Burk slopes, substrate p-nitrophenyl-a-D-glucopyranoside), the Ki was found to be 50.4 µM. For the same molecule, in data set [1], the “α-glucosidase inhibitory activity in words” value is listed as “moderate anti-α-glucisidase activity” and the half-maximal inhibitory concentration (IC50) came out at 45.26 ± 0.03 µM.

`O=C(Cn1cc(COc2ccc(N3C(=O)c4ccccc4C3=O)cc2)nn1)Nc1ccc([N+](=O)[O-])cc1` [Compound 11k, 2-(4-((4-(1,3-dioxoisoindolin-2-yl)phenoxy)methyl)-1H-1,2,3-triazol-1-yl)-N-(4-nitrophenyl)acetamide] yielded a melting point of 260 to 262 °C. In data set [1], the “α-glucosidase inhibitory activity in words” value is “complete loss of inhibitory activity” and the IC50 is > 750 µM.

Turning to `Cc1cc([N+](=O)[O-])ccc1NC(=O)Cn1cc(COc2ccc(N3C(=O)c4ccccc4C3=O)cc2)nn1` [Compound 11l, 2-(4-((4-(1,3-dioxoisoindolin-2-yl)phenoxy)methyl)-1H-1,2,3-triazol-1-yl)-N-(2-methyl-4-nitrophenyl)acetamide], the melting point was 228 to 230 °C. The molecule also showed an IC50 in data set [1] of 273.3 ± 0.28 µM.

As to `O=C(Cn1cc(COc2ccc(N3C(=O)c4ccccc4C3=O)cc2)nn1)NCc1ccccc1` [Compound 11m, N-benzyl-2-(4-((4-(1,3-dioxoisoindolin-2-yl)phenoxy)methyl)-1H-1,2,3-triazol-1-yl)acetamide], the melting point lay within 201 to 203 °C. For the same molecule, in data set [1], the “α-glucosidase inhibitory activity in words” value is “inactive” and the IC50 is > 750 µM.

As to `O=C(Cn1cc(COc2ccc(N3C(=O)c4ccccc4C3=O)cc2)nn1)NCc1ccc(F)cc1` [Compound 11n, 2-(4-((4-(1,3-dioxoisoindolin-2-yl)phenoxy)methyl)-1H-1,2,3-triazol-1-yl)-N-(4-fluorobenzyl)acetamide], the melting point is 204 to 206 °C. In data set [1], this molecule registered an IC50 of 685.99 ± 0.32 µM.
